According to US20250145665A1, “MACROCYCLIC PEPTIDES USEFUL AS MODULATORS OF TNF ALPHA” (Bristol-Myers Squibb Company, priority 2023, published 2025):
Starred links: 1 amine or outer side, 2 acyl side, 3 side chain; linkers in the order of their positions; H or OH if unused. Positions of bridges follow the written chain, without caps; N, C: chain ends. Non-standard residues stand in square brackets, D forms with d. Residues, ends and D or L forms follow the SMILES beside them. Bip(4'-NHCO-C6H4-3-CH2COOH) = N[C@@H](Cc1ccc(-c2ccc(NC(=O)c3cccc(CC(=O)O)c3)cc2)cc1)C(=O)O; Bip(4'-NHCO-C6H4-4-CH2COOH) = N[C@@H](Cc1ccc(-c2ccc(NC(=O)c3ccc(CC(=O)O)cc3)cc2)cc1)C(=O)O; Bip(4'-(3-HOOC-benzamido)) = N[C@@H](Cc1ccc(-c2ccc(NC(=O)c3cccc(C(=O)O)c3)cc2)cc1)C(=O)O; dArg(ω-(2S)-2,3-diOHpropyl) = N=C(NCCC[C@@H](N)C(=O)O)NC[C@H](O)CO; Bip(4'-COOH) = N[C@@H](Cc1ccc(-c2ccc(C(=O)O)cc2)cc1)C(=O)O; Bip(4'-NHAc) = CC(=O)Nc1ccc(-c2ccc(C[C@H](N)C(=O)O)cc2)cc1; Phe(3-CH2NH2) = O=C([C@H](Cc1cccc(CN[*:3])c1)N[*:1])[*:2]; Pro(trans-4-Ph) = O=C(O)[C@@H]1C[C@@H](c2ccccc2)CN1; dArg(ω-Bn) = N=C(NCCC[C@@H](N)C(=O)O)NCc1ccccc1; Ala(morpholin-4-yl) = N[C@@H](CN1CCOCC1)C(=O)O; Phe(3-CONH2) = NC(=O)c1cccc(C[C@H](N)C(=O)O)c1; Bip = N[C@@H](Cc1ccc(-c2ccccc2)cc1)C(=O)O; Val(3-OH) = CC(C)(O)[C@H](N)C(=O)O; h4Pal = N[C@@H](CCc1ccncc1)C(=O)O; hPhe = N[C@@H](CCc1ccccc1)C(=O)O; 2Pal = N[C@@H](Cc1ccccn1)C(=O)O; 3Pal = N[C@@H](Cc1cccnc1)C(=O)O; Tic = O=C(O)[C@@H]1Cc2ccccc2CN1; 2Thi = N[C@@H](Cc1cccs1)C(=O)O; Cha = N[C@@H](CC1CCCCC1)C(=O)O; Chg = N[C@H](C(=O)O)C1CCCCC1; Tle = CC(C)(C)[C@H](N)C(=O)O; Sar = CNCC(=O)O

Target: TNFα (Homo sapiens, UniProt P01375)
Sequence (P01375 77-233 limits assumed): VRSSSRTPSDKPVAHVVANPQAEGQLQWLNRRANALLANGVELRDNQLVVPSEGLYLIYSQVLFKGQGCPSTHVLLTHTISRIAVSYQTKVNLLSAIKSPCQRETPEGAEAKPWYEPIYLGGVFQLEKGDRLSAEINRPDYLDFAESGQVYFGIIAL
Experiment: TNF-Induced HEK-Blue Assay
Type: cell-based
Conditions: HEK-Blue-CD40L cells, NF-kB-driven secreted alkaline phosphatase reporter; TNFα 0.5 ng/ml; 18 h; read-out: TNF induced HEK-Blue assay IC50 value

IC50	SMILES
50 to 200 nM	CC(=O)Nc1ccc(-c2ccc(C[C@@H]3NC(=O)[C@H](Cc4ccc(-c5ccccc5)cc4)NC(=O)[C@H](CN4CCOCC4)NC(=O)CSC[C@@H](C(=O)NCC(N)=O)NC(=O)[C@H](C(C)C)NC(=O)[C@H](CCCNC(=N)N)NC(=O)[C@H](C(C)C)NC(=O)[C@@H]4CCCN4C(=O)[C@H](C(C)C)NC(=O)[C@H](CCCNC(=N)N)NC(=O)[C@H](CC(=O)O)NC(=O)[C@@H]4CCCN4C(=O)CN(C)C3=O)cc2)cc1 [Example 89] ({CH2CO}-[Ala(morpholin-4-yl)][Bip][Bip(4'-NHAc)][Sar]PDRVPVRVCG-NH2; thioether N-13)
50 to 200 nM	CC[C@H](C)[C@@H]1NC(=O)[C@@H](CCCNC(=N)NCc2ccccc2)NC(=O)[C@H](CC(=O)O)NC(=O)[C@H](Cc2cnc[nH]2)NC(=O)CN(C)C(=O)[C@H](Cc2ccc(-c3ccc(NC(=O)c4ccc(CC(=O)O)cc4)cc3)cc2)NC(=O)[C@H](Cc2ccc(-c3ccc(C(=O)O)cc3)cc2)NC(=O)[C@H](CC2CCCCC2)NC(=O)CSC[C@@H](C(=O)NCC(N)=O)NC(=O)[C@H](CC(C)C)NC(=O)[C@H](Cc2cnc[nH]2)NC(=O)[C@H](C(C)C)NC(=O)[C@@H]2CCCN2C1=O [Example 584] ({CH2CO}-[Cha][Bip(4'-COOH)][Bip(4'-NHCO-C6H4-4-CH2COOH)][Sar]HD[dArg(ω-Bn)]IPVHLCG-NH2; thioether N-13)
50 to 200 nM	CC(=O)Nc1ccc(-c2ccc(C[C@@H]3NC(=O)[C@H](Cc4ccc(-c5ccccc5)cc4)NC(=O)[C@H](CN4CCOCC4)NC(=O)CSC[C@@H](C(=O)NCC(N)=O)NC(=O)[C@H](CC(C)C)NC(=O)[C@H](Cc4cccc(C(N)=O)c4)NC(=O)[C@H](C4CCCCC4)NC(=O)[C@@H]4CCCN4C(=O)[C@H](C(C)C)NC(=O)[C@@H](CCCNC(=N)N)NC(=O)[C@H](CC(=O)O)NC(=O)[C@H](Cc4ccccc4)NC(=O)CN(C)C3=O)cc2)cc1 [Example 459] ({CH2CO}-[Ala(morpholin-4-yl)][Bip][Bip(4'-NHAc)][Sar]FD[dR]VP[Chg][Phe(3-CONH2)]LCG-NH2; thioether N-13)
200 to 2000 nM	CC(C)C[C@@H]1NC(=O)[C@H](Cc2ccc(O)cc2)NC(=O)[C@H](C(C)C)NC(=O)[C@@H]2CCCN2C(=O)[C@H](C(C)C)NC(=O)[C@@H](CCCNC(=N)N)NC(=O)[C@H](CC(=O)O)NC(=O)[C@@H]2C[C@@H](c3ccccc3)CN2C(=O)CN(C)C(=O)[C@H](Cc2ccc(-c3ccccc3)cc2)NC(=O)[C@H](Cc2ccc(-c3ccccc3)cc2)NC(=O)[C@H](CN2CCOCC2)NC(=O)CSC[C@@H](C(=O)NCC(N)=O)NC1=O [Example 99] ({CH2CO}-[Ala(morpholin-4-yl)][Bip][Bip][Sar][Pro(trans-4-Ph)]D[dR]VPVYLCG-NH2; thioether N-13)
50 to 200 nM	CC(C)C[C@@H]1NC(=O)[C@H](Cc2cccc(C(N)=O)c2)NC(=O)[C@H](C(C)C)NC(=O)[C@@H]2CCCN2C(=O)[C@H](C(C)C)NC(=O)[C@@H](CCCNC(=N)NC[C@H](O)CO)NC(=O)[C@H](CC(=O)O)NC(=O)[C@H](Cc2ccc(O)cc2)NC(=O)CN(C)C(=O)[C@H](Cc2ccc(-c3ccc(NC(=O)c4cccc(CC(=O)O)c4)cc3)cc2)NC(=O)[C@H](Cc2ccc(-c3ccccc3)cc2)NC(=O)[C@H](CN2CCOCC2)NC(=O)CSC[C@@H](C(=O)NCC(N)=O)NC1=O [Example 549] ({CH2CO}-[Ala(morpholin-4-yl)][Bip][Bip(4'-NHCO-C6H4-3-CH2COOH)][Sar]YD[dArg(ω-(2S)-2,3-diOHpropyl)]VPV[Phe(3-CONH2)]LCG-NH2; thioether N-13)
50 to 200 nM	CC(C)C[C@@H]1NC(=O)[C@H](Cc2ccc(O)cc2)NC(=O)[C@H](C(C)C)NC(=O)[C@@H]2CCCN2C(=O)[C@H](Cc2cccnc2)NC(=O)[C@H](CCCNC(=N)N)NC(=O)[C@H](CC(=O)O)NC(=O)[C@@H]2CCCN2C(=O)CN(C)C(=O)[C@H](Cc2ccc(-c3ccccc3)cc2)NC(=O)[C@H](Cc2ccc(-c3ccccc3)cc2)NC(=O)[C@H](CN2CCOCC2)NC(=O)CSC[C@@H](C(=O)NCC(N)=O)NC1=O [Example 116] ({CH2CO}-[Ala(morpholin-4-yl)][Bip][Bip][Sar]PDR[3Pal]PVYLCG-NH2; thioether N-13)
50 to 200 nM	CC(C)C[C@@H]1NC(=O)[C@H](Cc2ccc(O)cc2)NC(=O)[C@H](C(C)C)NC(=O)[C@@H]2Cc3ccccc3CN2C(=O)[C@H](C(C)C)NC(=O)[C@@H](CCCNC(=N)N)NC(=O)[C@H](CC(=O)O)NC(=O)[C@@H]2CCCN2C(=O)CN(C)C(=O)[C@H](Cc2ccc(-c3ccc(NC(=O)c4cccc(C(=O)O)c4)cc3)cc2)NC(=O)[C@H](Cc2ccc(-c3ccc(C(=O)O)cc3)cc2)NC(=O)[C@H](CC2CCCCC2)NC(=O)CSC[C@@H](C(=O)NCC(N)=O)NC1=O [Example 384] ({CH2CO}-[Cha][Bip(4'-COOH)][Bip(4'-(3-HOOC-benzamido))][Sar]PD[dR]V[Tic]VYLCG-NH2; thioether N-13)
50 to 200 nM	CC(C)C[C@@H]1NC(=O)[C@H](Cc2cccs2)NC(=O)[C@H](C(C)C)NC(=O)[C@@H]2CCCN2C(=O)[C@H](C(C)C)NC(=O)[C@@H](CCCNC(=N)N)NC(=O)[C@H](CC(=O)O)NC(=O)[C@H](Cc2ccccn2)NC(=O)CN(C)C(=O)[C@H](Cc2ccc(-c3ccc(NC(=O)c4ccc(CC(=O)O)cc4)cc3)cc2)NC(=O)[C@H](Cc2ccc(-c3ccc(C(=O)O)cc3)cc2)NC(=O)[C@H](CC2CCCCC2)NC(=O)CSC[C@@H](C(=O)NCC(N)=O)NC1=O [Example 612] ({CH2CO}-[Cha][Bip(4'-COOH)][Bip(4'-NHCO-C6H4-4-CH2COOH)][Sar][2Pal]D[dR]VPV[2Thi]LCG-NH2; thioether N-13)
50 to 200 nM	CC[C@H](C)[C@@H]1NC(=O)[C@@H](CCCNC(=N)N)NC(=O)[C@H](CC(=O)O)NC(=O)[C@@H]2CCCN2C(=O)CN(C)C(=O)[C@H](Cc2ccc(-c3ccc(NC(=O)c4cccc(CC(=O)O)c4)cc3)cc2)NC(=O)[C@H](Cc2ccc(-c3ccc(C(=O)O)cc3)cc2)NC(=O)[C@H](C(C)(C)C)NC(=O)CSC[C@@H](C(=O)NCC(N)=O)NC(=O)[C@H](CC(C)C)NC(=O)[C@H](Cc2cnc[nH]2)NC(=O)[C@H](C(C)C)NC(=O)[C@@H]2CCCN2C1=O [Example 575] ({CH2CO}-[Tle][Bip(4'-COOH)][Bip(4'-NHCO-C6H4-3-CH2COOH)][Sar]PD[dR]IPVHLCG-NH2; thioether N-13)
< 50 nM	CC(C)C[C@@H]1NC(=O)[C@H](CCc2ccncc2)NC(=O)[C@H](C(C)C)NC(=O)[C@@H]2CCCN2C(=O)[C@H](C(C)C)NC(=O)[C@@H](CCCNC(=N)N)NC(=O)[C@H](CC(=O)O)NC(=O)[C@H](Cc2ccc(O)cc2)NC(=O)CN(C)C(=O)[C@H](Cc2ccc(-c3ccccc3)cc2)NC(=O)[C@H](Cc2ccc(-c3ccccc3)cc2)NC(=O)[C@H](CN2CCOCC2)NC(=O)CSC[C@@H](C(=O)NCC(N)=O)NC1=O [Example 155] ({CH2CO}-[Ala(morpholin-4-yl)][Bip][Bip][Sar]YD[dR]VPV[h4Pal]LCG-NH2; thioether N-13)
200 to 2000 nM	CC(C)C[C@@H]1NC(=O)[C@H](CCCNC(=N)N)NC(=O)[C@H](C(C)C)NC(=O)[C@@H]2CCCN2C(=O)[C@H](CC(N)=O)NC(=O)[C@H](CCCNC(=N)N)NC(=O)[C@H](CC(=O)O)NC(=O)[C@@H]2CCCN2C(=O)CN(C)C(=O)[C@H](Cc2ccc(-c3ccccc3)cc2)NC(=O)[C@H](Cc2ccc(-c3ccccc3)cc2)NC(=O)[C@H](CN2CCOCC2)NC(=O)CSC[C@@H](C(=O)NCC(N)=O)NC1=O [Example 67] ({CH2CO}-[Ala(morpholin-4-yl)][Bip][Bip][Sar]PDRNPVRLCG-NH2; thioether N-13)
200 to 2000 nM	CC(C)C[C@@H]1NC(=O)[C@H](Cc2ccc(O)cc2)NC(=O)[C@H](C(C)C)NC(=O)[C@@H]2CCCN2C(=O)[C@H](C(C)C)NC(=O)[C@H](CCCNC(=N)N)NC(=O)[C@H](CC(=O)O)NC(=O)[C@@H]2CCCN2C(=O)CN(C)C(=O)[C@H](Cc2ccc(-c3ccccc3)cc2)NC(=O)[C@H](Cc2ccc(-c3ccccc3)cc2)NC(=O)[C@H](C(C)(C)O)NC(=O)CSC[C@@H](C(=O)NCC(N)=O)NC1=O [Example 64] ({CH2CO}-[Val(3-OH)][Bip][Bip][Sar]PDRVPVYLCG-NH2; thioether N-13)
50 to 200 nM	CC(C)C[C@@H]1NC(=O)[C@H](CCc2ccccc2)NC(=O)[C@H](C(C)C)NC(=O)[C@@H]2CCCN2C(=O)[C@H](C(C)C)NC(=O)[C@@H](CCCNC(=N)N)NC(=O)[C@H](CC(=O)O)NC(=O)[C@H](Cc2ccc(O)cc2)NC(=O)CN(C)C(=O)[C@H](Cc2ccc(-c3ccccc3)cc2)NC(=O)[C@H](Cc2ccc(-c3ccccc3)cc2)NC(=O)[C@H](CN2CCOCC2)NC(=O)CSC[C@@H](C(=O)NCC(N)=O)NC1=O [Example 154] ({CH2CO}-[Ala(morpholin-4-yl)][Bip][Bip][Sar]YD[dR]VPV[hPhe]LCG-NH2; thioether N-13)
< 50 nM	CC(=O)Nc1ccc(-c2ccc(C[C@@H]3NC(=O)[C@H](Cc4ccc(-c5ccccc5)cc4)NC(=O)[C@H](CN4CCOCC4)NC(=O)CSC[C@@H](C(=O)NCC(N)=O)NC(=O)[C@H](CC(C)C)NC(=O)[C@H](Cc4ccccc4)NC(=O)[C@H](C4CCCCC4)NC(=O)[C@@H]4CCCN4C(=O)[C@H](C(C)C)NC(=O)[C@@H](CCCNC(=N)N)NC(=O)[C@H](CC(=O)O)NC(=O)[C@H](Cc4ccccn4)NC(=O)CN(C)C3=O)cc2)cc1 [Example 454] ({CH2CO}-[Ala(morpholin-4-yl)][Bip][Bip(4'-NHAc)][Sar][2Pal]D[dR]VP[Chg]FLCG-NH2; thioether N-13)
< 50 nM	CC(=O)Nc1ccc(-c2ccc(C[C@@H]3NC(=O)[C@H](Cc4ccc(-c5ccccc5)cc4)NC(=O)[C@H](CC4CCCCC4)NC(=O)CSC[C@@H](C(=O)NCC(N)=O)NC(=O)[C@H](CC(C)C)NC(=O)[C@H](Cc4cccc(CN)c4)NC(=O)[C@H](C(C)C)NC(=O)[C@@H]4CCCN4C(=O)[C@H](C(C)C)NC(=O)[C@@H](CCCNC(=N)N)NC(=O)[C@H](CC(=O)O)NC(=O)[C@H](Cc4ccc(O)cc4)NC(=O)CN(C)C3=O)cc2)cc1 [Example 283] ({CH2CO}-[Cha][Bip][Bip(4'-NHAc)][Sar]YD[dR]VPV[Phe(3-CH2NH2)]LCG-NH2; thioether N-13)
